Laboratory results published in patent publication US7157083B2, “Compositions and methods for treating retroviral infections” (priority 1998, dated 2007).
Where two headings read alike, the source gives them in different places.

How the values were obtained:
[1] = system: PBMCs; test: Study 4 sensitization: cell viability; assay type: cell-based, human
Experimental: Percent virus control (% VC) in the following tables is the mean RT activity (cpm) as a percentage of a virus control. Percent cell control (% CC) is the mean XTT absorbance as a percentage of a cell control.
The macrophage plates were then washed with HBSS multiple times. Fresh mixed pha blast PBMCs (5×10e4/well) were placed on the macrophage cells, allowed to incubate for 72 hours and then harvested and reset in a fresh 96 well plate. The PBMCs were then challenged overnight with the respective virus (IIIB or Rojo) at a standard MOI for that virus. The PBMCs were 5× in plate spin washed with DPBS, incubated 24 hours, at which time 5×10e4 fresh pha blast PBMCs/well were added. The culture was incubated an additional 6 days and then assayed for RT activity.
Where viability corrections were conducted, they were performed by dividing the RT CPM value by the toxicity absorbance in order to compensate for well to well variations noted in the cell titer toxicity noted.

[2] = system: HIV-1; test: Study 5 overall: resistance of naive PBMCs to HIV-1 challenge (RT activity and P-24 assay); assay type: cell-based; details: monocytes and macrophages incubated with hyaluronidase treated heat inactivated or Aldrathiol-2 treated virus
Experimental: Control groups were not treated with the enzyme. The virus was then titrated on macrophage/monocyte cultures and incubated at 37° C. for 48 hours at which time the macrophages and monocytes were washed 3×, resuspended and placed in fresh wells. Naïve PBMC's were overlayed on the macrophage/monocyte cultures and incubated at 37° C. for 72 hours. The PBMC's were then separated, washed and placed in fresh wells with fresh medium and rested for 48 hours. After a 48 hour rest period, the PBMC's were challenged with HIV-1 with and without PHA, I1-2, or both. […] These various assays are presented below in Table 10 .

[3] = system: HIV-1; details: Assay #5
Experimental: (§1) Reverse transcriptase (RT) activity was measured in cell-free supernatants. Tritiated thymidine triphosphate (NEN) (TTP) was resuspended in distilled H2O at 5 Cl/mL. Poly rA and oligo dT were prepared as a stock solution which was kept at −20° C. The RT reaction buffer was prepared fresh on a daily basis and consists of 125 μL 1.0 M EGTA, 125 μL d H2O, 110 μL 10% SDS, 50 μL 1.0 M Tris (pH 7.4), 50 μL 1.0 M DTT, and 40μ1.0 M MgCl2. These three solutions were mixed together in a ratio of 2 parts TTP, 1 part poly rA:oligo dT, and 1 part reaction buffer. Ten microliters of this reaction mixture was placed in a round bottom microtiter plate and 15 μL of virus containing supernatant was added and mixed. The plate was incubated at 37° C. in a water bath with a solid support to prevent submersion of the plate and incubated for 60 minutes. Following reaction, the reaction volume was spotted onto pieces of DE81 paper, washed 5 times for 5 minutes each in a 5% sodium phosphate buffer, 2 times for 1 minute each in distilled water, 2 times for 1 minute each in 70% ethanol, and then dried. Opti-Fluor O was added to each sample and incorporated radioactivity was quantitated utilizing a Wallace 1450 Microbetaplus liquid scintillation counter.

[4] = system: HIV-1; details: Assay #6
Experimental: as §1

[5] = system: HIV-1; details: Assay #7
Experimental: as §1

[6] = system: HIV-1; details: Assay #8
Experimental: as §1

Hyaluronidase
cell viability % CC ([1]; 0.097656 μg/mL, GP120IIIB Sensitized, Standard): 167.6%
cell viability % CC ([1]; 0.097656 μg/mL, IIIB Sensitized, Standard): 138.2%
cell viability % CC ([1]; 0.390625 μg/mL, GP120IIIB Sensitized, Turpin): 67.6%
cell viability % CC ([1]; 1.5625 μg/mL, GP120IIIB Sensitized, Turpin): 73.4%
cell viability % CC ([1]; 6.25 μg/mL, GP120IIIB Sensitized, Turpin): 73.2%
cell viability % CC ([1]; 6.25 μg/mL, IIIB Sensitized, Standard): 133.5%
cell viability % CC ([1]; 25 μg/mL, Rojo Sensitized, Turpin): 75.0%
cell viability % CC ([1]; Table 9, 0.097656 μg/mL, GP120IIIB Sensitized, Standard): 167.6%
cell viability % CC ([1]; Table 9, 0.097656 μg/mL, IIIB Sensitized, Standard): 138.2%
cell viability % CC ([1]; Table 9, 0.390625 μg/mL, GP120IIIB Sensitized, Turpin): 67.6%
cell viability % CC ([1]; Table 9, 1.5625 μg/mL, GP120IIIB Sensitized, Turpin): 73.4%
cell viability % CC ([1]; Table 9, 6.25 μg/mL, GP120IIIB Sensitized, Turpin): 73.2%
cell viability % CC ([1]; Table 9, 6.25 μg/mL, IIIB Sensitized, Standard): 133.5%
cell viability % CC ([1]; Table 9, 25 μg/mL, Rojo Sensitized, Turpin): 75.0%
resistance of naïve PBMC's to HIV-1 challenge [2]: up to 100%
% Control ([3]; 5 mg/mL): 65.1%
Mean RT ([3]; 5 mg/mL): 12442.7 cpm
% Control ([3]; 10 mg/mL): 58.3%
Mean RT ([3]; 10 mg/mL): 11156.3 cpm
% Control ([3]; 20 mg/mL): 18.5%
% Control, Sum ([3]; Sum over 20, 10, 5 mg/mL): 141.9%
Mean RT, Sum ([3]; Sum over 20, 10, 5 mg/mL): 23599 cpm
% Control ([4]; 5 mg/mL): 54.1%
Mean RT ([4]; 5 mg/mL): 12279.7 cpm
% Control ([4]; 10 mg/mL): 49.6%
Mean RT ([4]; 10 mg/mL): 11244.7 cpm
% Control ([4]; 20 mg/mL): 19.5%
Mean RT ([4]; 20 mg/mL): 4430.7 cpm
% Control, Sum ([4]; Sum over 20, 10, 5 mg/mL): 123.2%
Mean RT, Sum ([4]; Sum over 20, 10, 5 mg/mL): 27955.1 cpm
% Control ([5]; 5 mg/mL): 111.3%
Mean RT ([5]; 5 mg/mL): 18777.7 cpm
% Control ([5]; 10 mg/mL): 122.2%
Mean RT ([5]; 10 mg/mL): 20614.7 cpm
% Control ([5]; 20 mg/mL): 162.7%
Mean RT ([5]; 20 mg/mL): 27462 cpm
% Control, Sum ([5]; Sum over 20, 10, 5 mg/mL): 396.2%
Mean RT, Sum ([5]; Sum over 20, 10, 5 mg/mL): 66854.4 cpm
% Control ([6]; 5 mg/mL): 171.3%
Mean RT ([6]; 5 mg/mL): 30167.3 cpm
% Control ([6]; 10 mg/mL): 63.8%
Mean RT ([6]; 10 mg/mL): 11241 cpm
% Control ([6]; 20 mg/mL): 51.2%
Mean RT ([6]; 20 mg/mL): 9014.3 cpm
% Control, Sum ([6]; Sum over 20, 10, 5 mg/mL): 286.3%
Mean RT, Sum ([6]; Sum over 20, 10, 5 mg/mL): 50422.6 cpm
